Key:
SF-539 = experiment: Antitumor activity against human SF539 cells; type: functional
HCT-15 = experiment: Antitumor activity against human HCT15 cells; type: functional
SF-268 = experiment: Antitumor activity against human SF268 cells; type: functional
A498 = experiment: Antitumor activity against human A498 cells; type: functional
NCI-H460 = experiment: Antitumor activity against human NCI-H460 cells; type: functional
DU-145 = experiment: Antitumor activity against human DU145 cells; type: functional
PC-3 = experiment: Antitumor activity against human PC3 cells; type: functional
ACHN = experiment: Antitumor activity against human ACHN cells; type: functional
OVCAR-4 = experiment: Antitumor activity against human OVCAR4 cells; type: functional
[1] = Antitumor activity against human NCI-H322 cells; type: functional
U-251 = experiment: Antitumor activity against human U251 cells; type: functional
A549 = experiment: Antitumor activity against human A549 cells; type: functional
MOLT-4 = experiment: Antitumor activity against human MOLT4 cells; type: functional
RPMI-8226 = experiment: Antitumor activity against human RPMI8226 cells; type: functional
COLO 205 = experiment: Antitumor activity against human COLO205 cells; type: functional
NCI-H226 = experiment: Antitumor activity against human NCI-H226 cells; type: functional
[2] = Antitumor activity against human […] cells; type: functional
786-0 = experiment: Antitumor activity against human 786-0 cells; type: functional
OVCAR-8 = experiment: Antitumor activity against human OVCAR8 cells; type: functional
OVCAR-3 = experiment: Antitumor activity against human OVCAR-3 cells; type: functional
EKVX = experiment: Antitumor activity against human EKVX cells; type: functional
SNB-19 = experiment: Antitumor activity against human SNB19 cells; type: functional
NCI-H23 = experiment: Antitumor activity against human NCI-H23 cells; type: functional
[3] = Antitumor activity against human HS 578T cells; type: functional
SNB-75 = experiment: Antitumor activity against human SNB75 cells; type: functional
CCRF-CEM [4] = experiment: Antitumor activity against human CCRF-CEM cells; type: functional
NCI/ADR-RES = experiment: Antitumor activity against human NCI/ADR-RES cells; type: functional
UO-31 = experiment: Antitumor activity against human UO31 cells; type: functional
HCT-116 = experiment: Antitumor activity against human HCT116 cells; type: functional
LOX IMVI = experiment: Antitumor activity against human LOX IMVI cells; type: functional
SK-MEL-28 = experiment: Antitumor activity against human SK-MEL-28 cells; type: functional
RXF 393 = experiment: Antitumor activity against human RXF393 cells; type: functional
CAKI-1 = experiment: Antitumor activity against human CAKI-1 cells; type: functional
MCF7 = experiment: Antitumor activity against human MCF7 cells; type: functional
K562 = experiment: Antitumor activity against human K562 cells; type: functional
SN12C = experiment: Antitumor activity against human SN12C cells; type: functional
BT-549 = experiment: Antitumor activity against human BT549 cells; type: functional
TK-10 = experiment: Antitumor activity against human TK10 cells; type: functional
OVCAR-5 = experiment: Antitumor activity against human OVCAR5 cells; type: functional
HOP-92 = experiment: Antitumor activity against human HOP92 cells; type: functional
SK-MEL-5 = experiment: Antitumor activity against human SK-MEL-5 cells; type: functional
MDA-MB-435 = experiment: Antitumor activity against human MDA-MB-435 cells; type: functional
NCI-H522 = experiment: Antitumor activity against human NCI-H522 cells; type: functional
[5] = Antitumor activity against human HL60 (TB) cells; type: functional, HL-60(TB); conditions: HL-60
SR [6] = experiment: Antitumor activity against human SR cells; type: functional
IGROV-1 = experiment: Antitumor activity against human IGROV1 cells; type: functional
SW-620 = experiment: Antitumor activity against human SW620 cells; type: functional
SK-OV-3 = experiment: Antitumor activity against human SK-OV-3 cells; type: functional
UACC-62 = experiment: Antitumor activity against human UACC62 cells; type: functional
Malme-3M = experiment: Antitumor activity against human MALME-3M cells; type: functional
SF-295 = experiment: Antitumor activity against human SF295 cells; type: functional
HT-29 = experiment: Antitumor activity against human HT29 cells; type: functional
UACC-257 = experiment: Antitumor activity against human UACC257 cells; type: functional
KM12 = experiment: Antitumor activity against human KM12 cells; type: functional
HOP-62 = experiment: Antitumor activity against human HOP62 cells; type: functional
HCC 2998 = experiment: Antitumor activity against human HCC2998 cells; type: functional
SR [7] = experiment: Growth inhibition of human SR cells at 1 uM; type: functional
CCRF-CEM [8] = experiment: Growth inhibition of huam CCRF-CEM at 1 uM; type: functional; conditions: Homo sapiens

O=c1[nH]cc(F)c(=O)[nH]1 [FLUOROURACIL]
12.6 µM: GI50 (MOLT-4) | GI50 (786-0) | GI50 (NCI-H23) | GI50 (SK-MEL-5) | GI50 (IGROV-1) | GI50 (UACC-62)
0.398 µM: GI50 (HCT-116)
501 µM: GI50 [2]
2 µM: GI50 (A549)
1 µM: GI50 (NCI-H460)
63.1 µM: GI50 (OVCAR-4)
6.31 µM: GI50 (HCT-15) | GI50 (COLO 205) | GI50 (LOX IMVI) | GI50 (HT-29)
1.58 µM: GI50 (MCF7) | GI50 (HCC 2998)
251 µM: GI50 (NCI-H226) | GI50 [3]
3.98 µM: GI50 (CAKI-1) | GI50 (SR [6])
200 µM: GI50 (SNB-75)
126 µM: GI50 (SNB-19) | GI50 (TK-10)
25.1 µM: GI50 (OVCAR-3) | GI50 (SN12C) | GI50 (SW-620)
50.1 µM: GI50 (SF-268) | GI50 (PC-3) | GI50 (SK-MEL-28) | GI50 (RXF 393) | GI50 (SF-295)
20 µM: GI50 [1] | GI50 (OVCAR-8) | GI50 (K562) | GI50 [5] | GI50 (Malme-3M) | GI50 (HOP-62)
316 µM: GI50 (EKVX)
1.26 µM: GI50 (SF-539)
158 µM: GI50 (OVCAR-5) | GI50 (HOP-92) | GI50 (SK-OV-3)
10 µM: GI50 (A498) | GI50 (DU-145) | GI50 (ACHN) | GI50 (MDA-MB-435) | GI50 (KM12)
5.01 µM: GI50 (RPMI-8226) | GI50 (UO-31)
31.6 µM: GI50 (CCRF-CEM [4])
100 µM: GI50 (BT-549) | GI50 (UACC-257)
39.8 µM: GI50 (U-251) | GI50 (NCI/ADR-RES) | GI50 (NCI-H522)

COc1ccc([C@H]2O[C@@H](CO)C[C@]2(O)c2ccc(OC)cc2)cc1 (relative stereo)
46%: inhibition at 1 µM (CCRF-CEM [8])
36%: inhibition at 1 µM (SR [7])
39.8 µM: GI50 [3]
95.5 µM: GI50 (HOP-92)
50.1 µM: GI50 (SR [6])
38.9 µM: GI50 [5]
> 100 µM: GI50 (SF-539) | GI50 (HCT-15) | GI50 (SF-268) | GI50 (A498) | GI50 (NCI-H460) | GI50 (DU-145) | GI50 (PC-3) | GI50 (ACHN) | GI50 (OVCAR-4) | GI50 [1] | GI50 (U-251) | GI50 (A549) | GI50 (MOLT-4) | GI50 (RPMI-8226) | GI50 (COLO 205) | GI50 (NCI-H226) | GI50 [2] | GI50 (786-0) | GI50 (OVCAR-8) | GI50 (OVCAR-3) | GI50 (EKVX) | GI50 (SNB-19) | GI50 (NCI-H23) | GI50 (SNB-75) | GI50 (CCRF-CEM [4]) | GI50 (NCI/ADR-RES) | GI50 (UO-31) | GI50 (HCT-116) | GI50 (LOX IMVI) | GI50 (SK-MEL-28) | GI50 (CAKI-1) | GI50 (MCF7) | GI50 (K562) | GI50 (SN12C) | GI50 (BT-549) | GI50 (TK-10) | GI50 (OVCAR-5) | GI50 (SK-MEL-5) | GI50 (MDA-MB-435) | GI50 (NCI-H522) | GI50 (IGROV-1) | GI50 (SW-620) | GI50 (SK-OV-3) | GI50 (UACC-62) | GI50 (Malme-3M) | GI50 (SF-295) | GI50 (HT-29) | GI50 (UACC-257) | GI50 (KM12) | GI50 (HOP-62) | GI50 (HCC 2998)
28.2 µM: GI50 (RXF 393)
